In a melting point compilation (Tetko et al.; mined from patent text by program, amines drawn as free bases though some values may be those of a salt):

melting point [°C] | SMILES
106 to 110 | CCC(CC1(c2ccc(Cl)c(Cl)c2)CCC1)=NO
240 to 241 | CCC(=O)N1CCC(NC(=O)Nc2ccc([N+](=O)[O-])cc2)CC1
74 to 77 | CCC(C)(C)c1cc(-c2cccc(CC3SC(N4CCOCC4)=NC3=O)c2)ccc1O (stereo unspecified)
96 to 97 | COc1ccc2c(c1)CNCCO2
244 to 246 | CN(C)S(=O)(=O)N(c1ccc(C(=O)Nc2ccc(Br)cc2)cc1)C1OC(=O)c2ccccc21 (stereo unspecified)
298 to 300 | Nc1nc(Nc2ccc(S(N)(=O)=O)cc2)sc1C(=O)c1ccc(C(=O)O)cc1
130 to 132 | Nc1c(CCO)cc(Cl)cc1C(O)c1ccccc1 (stereo unspecified)
55 to 62 | CC(C)[C@H](C[C@H](O)[C@H](C)NC(=O)OC(C)(C)C)C(=O)NN
118 to 120 | CCCOC[C@]1(OC)CC[C@H]2[C@@H]3CCC4=CC(=O)CCC4=C3[C@@H](c3ccc(C(C)=O)cc3)C[C@@]21C
118 to 119 | CCN(c1ccc([N+](=O)[O-])cc1Cl)S(=O)(=O)c1ccc(C)cc1
219 to 221 | O=C(O)c1ccc(OCC2CN(C(=O)c3ccccc3)C(=O)O2)cc1 (stereo unspecified)
75 to 76 | COc1ccc(C=CCC#N)cc1
183 | CCNC(=O)c1ccc(-c2ccc(-c3ccccc3)c(-c3ccc4c(c3)C(C)(C)CCC4(C)C)c2)cc1
113 to 115 | O=C(NCCO)/C(=C/c1ccc(C2CC2)cc1)NC(=O)c1ccc(OCCc2ccccc2)cc1
68 to 70 | C=CCc1ccccc1OC[C@@H](O)CNCCc1ccc(NC2CCN(S(=O)(=O)c3ccc(N(CCCCCC)C(N)=O)cc3)CC2)cc1

Further lines, the compound ahead of its results:

SMILES | melting point [°C]
O=S1(=O)CCCN1Cc1ccncc1 | 82
Cc1c(-c2ccncc2)[nH]c(-c2ccncc2)c1C=O | 278 to 280
Cc1ccc(C(=O)Cn2cc(Cl)cnc2=O)c(C)c1 | 221 to 222
Nc1c(C(=O)c2ccccc2OCc2ccccc2)oc2ccc(Cl)cc12 | 158 to 160
Cc1ccc2c(c1)C(c1ccc(OCC(=O)O)cc1)C(=O)O2 (stereo unspecified) | 198 to 203
O=c1ncc(C(F)(F)F)c[nH]1 | 154
COc1cc(OC)c2c(-c3cc(F)cc(F)c3)coc2c1 | 102 to 103
CCCCCCCCCCOC1CCC(=O)N1 (stereo unspecified) | 44 to 46
COc1c([N+](=O)[O-])cc(C(C)(C)C)cc1[N+](=O)[O-] | > 75
COc1cccc(/C(C#N)=C/c2ccc(OC)c(OC3CCCC3)c2)c1 | 83 to 85
Nc1ccc2c(c1)C(=O)NC(C(Cl)(Cl)Cl)O2 (stereo unspecified) | 172 to 174
Cn1cccc1CCNc1nc(-c2cccnc2)nc2ccccc12 | 140 to 142
CCOC(=O)C(Cc1cc2c([N+](=O)[O-])cccc2[nH]1)[N+](=O)[O-] (stereo unspecified) | 110 to 112
C=CCC(C)(C)C(=O)NC1CCCNC(=O)C1 (stereo unspecified) | 71 to 72
Cc1nn(C2=C(F)CC(F)(C#N)C=C2)c(=O)[nH]c1=O (stereo unspecified) | 214
COc1ccc(-n2nnc(-c3ccc(F)cc3Cl)c2N)cc1 | 175 to 177
CCC(Cc1cc(C(C)(C)C)c(O)c(C(C)(C)C)c1)[N+](=O)[O-] (stereo unspecified) | 55 to 60
Cc1nnc2n1-c1sc(C#CCn3c(=O)c4ccccc4c4ccccc43)cc1C(c1ccccc1Cl)=NC2 | 247 to 249
CC(C(=O)c1ccc(Cl)c(Cl)c1)C(O)C(=O)O (stereo unspecified) | 103 to 104
COc1ccc(Nc2ccccc2C(=O)CS(C)=O)cc1 (stereo unspecified) | 115 to 116
COc1c(C2CCN(CCCCNC(=O)c3ccc(-c4ccc(NC(=O)C(F)(F)F)cc4)cc3)CC2)ccc2c1CCCC2 | 226 to 228
CCCNS(=O)(=O)c1cc(C(=O)CBr)ccc1Cl | 96
COc1ccc2c(C)nnc(Cl)c2c1 | 151 to 153
CC(=O)SC(C)CC(=O)N1CCC[C@H]1C(=O)O (stereo partly specified) | 175 to 176
CCCc1nc2c(N)nc3ccccc3c2n1CC1(O)CCS(=O)(=O)CC1 | > 250
CCOC(=O)C1=C(C(F)(F)F)NC(N)(C(F)(F)F)C(C(=O)OCC)S1 (stereo unspecified) | 87.5 to 89
